From ChEMBL document CHEMBL4402510, “Caprazamycins: Promising lead structures acting on a novel antibacterial target MraY” (Eur J Med Chem, 2019)
pIC50: −log10 of the molar value. Converted amounts (≈) assume the structure as drawn.

Legend:
[1] = target: T1, Phospho-N-acetylmuramoyl-pentapeptide-transferase (Aquifex aeolicus (strain VF5), UniProt O66465); assay: Inhibition of MraY in Aquifex aeolicus
T1 sequence (O66465 whole entry): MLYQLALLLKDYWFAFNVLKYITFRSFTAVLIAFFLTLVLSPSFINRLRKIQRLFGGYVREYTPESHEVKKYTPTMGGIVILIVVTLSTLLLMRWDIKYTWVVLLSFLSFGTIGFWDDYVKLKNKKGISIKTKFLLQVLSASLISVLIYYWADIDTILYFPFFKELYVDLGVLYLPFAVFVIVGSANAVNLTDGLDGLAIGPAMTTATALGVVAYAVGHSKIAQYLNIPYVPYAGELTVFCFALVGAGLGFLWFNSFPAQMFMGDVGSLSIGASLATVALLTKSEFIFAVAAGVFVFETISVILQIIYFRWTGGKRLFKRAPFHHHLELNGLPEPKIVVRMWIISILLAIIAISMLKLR

Enterococcus faecium [2] = assay: Antibacterial activity against Enterococcus faecium ATCC 19434; assay type: functional
Pseudomonas aeruginosa = assay: Antibacterial activity against Pseudomonas aeruginosa ATCC 27853; assay type: functional
Staphylococcus aureus [3] = assay: Antibacterial activity against Staphylococcus aureus ATCC 25923; assay type: functional
Staphylococcus aureus [4] = assay: Antibacterial activity against methicillin resistant Staphylococcus aureus ATCC 43300; assay type: functional
Escherichia coli = assay: Antibacterial activity against Escherichia coli ATCC 8730; assay type: functional
Citrobacter freundii = assay: Antibacterial activity against Citrobacter freundii ATCC 8090; assay type: functional
[5] = target: T2, Phospho-N-acetylmuramoyl-pentapeptide-transferase (Staphylococcus aureus, UniProt P0C1R8); assay: Inhibition of MraY in Staphylococcus aureus
T2 sequence (P0C1R8 whole entry): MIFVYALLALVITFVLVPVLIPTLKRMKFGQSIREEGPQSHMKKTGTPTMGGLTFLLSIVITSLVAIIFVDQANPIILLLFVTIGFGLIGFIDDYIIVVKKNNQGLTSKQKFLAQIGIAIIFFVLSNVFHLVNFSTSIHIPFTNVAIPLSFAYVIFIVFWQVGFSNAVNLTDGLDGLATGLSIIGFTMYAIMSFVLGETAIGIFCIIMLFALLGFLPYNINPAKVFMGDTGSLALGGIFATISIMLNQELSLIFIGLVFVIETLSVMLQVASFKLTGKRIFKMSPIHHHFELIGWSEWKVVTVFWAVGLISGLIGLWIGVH

Enterococcus faecalis [6] = assay: Antibacterial activity against Enterococcus faecalis SR7914 (VRE); assay type: functional
Staphylococcus aureus [7] = assay: Antibacterial activity against methicillin resistant Staphylococcus aureus SR3637; assay type: functional
Enterococcus faecium [8] = assay: Antibacterial activity against Enterococcus faecium SR7917 (VRE); assay type: functional
Enterococcus faecalis [9] = assay: Antibacterial activity against Enterococcus faecalis ATCC 29212; assay type: functional
Staphylococcus aureus [10] = assay: Antibacterial activity against methicillin susceptible Staphylococcus aureus ATCC 29213; assay type: functional
Enterococcus faecalis [11] = assay: Antibacterial activity against t Enterococcus faecalis VRE after 20 hrs by NCCLS-based two-fold broth dilution method; assay type: functional; details: read-out: MIC
Enterococcus faecalis [12] = assay: Antibacterial activity against t Enterococcus faecalis after 20 hrs by NCCLS-based two-fold broth dilution method; assay type: functional; details: read-out: MIC

MIC (Enterococcus faecalis [11]) [µg/mL]	MIC (Enterococcus faecalis [12]) [µg/mL]	SMILES	pIC50 [1]	MIC (Enterococcus faecium [2]) [µg/mL]	MIC (Pseudomonas aeruginosa) [µg/mL]	MIC (Staphylococcus aureus [3]) [µg/mL]	MIC (Staphylococcus aureus [4]) [µg/mL]	MIC (Escherichia coli) [µg/mL]	MIC (Citrobacter freundii) [µg/mL]	pIC50 [5]	MIC (Enterococcus faecalis [6]) [µg/mL]	MIC (Staphylococcus aureus [7]) [µg/mL]	MIC (Enterococcus faecium [8]) [µg/mL]	MIC (Enterococcus faecalis [9]) [µg/mL]	MIC (Staphylococcus aureus [10]) [µg/mL]
–	–	CCCCCCCCCCc1cn(C[C@H](O[C@@H]2O[C@H](CN)[C@@H](O)[C@H]2O)[C@H]2O[C@@H](n3ccc(=O)[nH]c3=O)[C@H](O)[C@@H]2O)nn1	4.46	> 128	128 (≈ 215 µM)	16 (≈ 26.8 µM)	64 (≈ 107 µM)	> 128	> 128	–	–	–	–	–	–
–	–	NC[C@H]1O[C@@H](O[C@@H](Cc2cn(CCCCCCCCCCc3ccccc3)nn2)[C@H]2O[C@@H](n3ccc(=O)[nH]c3=O)[C@H](O)[C@@H]2O)[C@H](O)[C@@H]1O	4.70	64 (≈ 95.1 µM)	> 128	32 (≈ 47.6 µM)	16 (≈ 23.8 µM)	> 128	> 128	–	–	–	–	–	–
–	–	NC[C@H]1O[C@@H](O[C@@H](Cn2cc(CCCCCCCCCCc3ccccc3)nn2)[C@H]2O[C@@H](n3ccc(=O)[nH]c3=O)[C@H](O)[C@@H]2O)[C@H](O)[C@@H]1O	4.52	32 (≈ 47.6 µM)	64 (≈ 95.1 µM)	64 (≈ 95.1 µM)	16 (≈ 23.8 µM)	> 128	> 128	–	–	–	–	–	–
–	–	NC[C@H]1O[C@@H](O[C@@H](Cn2cc(CCCCCCCCCCOc3ccc(C(=O)c4ccccc4)cc3)nn2)[C@H]2O[C@@H](n3ccc(=O)[nH]c3=O)[C@H](O)[C@@H]2O)[C@H](O)[C@@H]1O	4.60	128 (≈ 161 µM)	> 128	16 (≈ 20.2 µM)	8 (≈ 10.1 µM)	> 128	> 128	–	–	–	–	–	–
–	–	CCCCCCCCCCCCCCCCC[C@H]1CN[C@@H]([C@H](O[C@@H]2O[C@H](CN)[C@@H](O)[C@H]2O)[C@H]2O[C@@H](n3ccc(=O)[nH]c3=O)[C@H](O)[C@@H]2O)C(=O)N(C)[C@@H]1C(=O)O	–	8 (≈ 10.2 µM)	–	–	–	–	–	5.42	16 (≈ 20.4 µM)	8 (≈ 10.2 µM)	16 (≈ 20.4 µM)	8 (≈ 10.2 µM)	8 (≈ 10.2 µM)
–	–	CCCCCCCCCCCCCCCCC[C@H]1CN(C)[C@@H]([C@H](O[C@@H]2O[C@H](CN)[C@@H](O)[C@H]2O)[C@H]2O[C@@H](n3ccc(=O)[nH]c3=O)[C@H](O)[C@@H]2O)C(=O)N(C)[C@@H]1C(=O)O	–	8 (≈ 10 µM)	–	–	–	–	–	5.16	8 (≈ 10 µM)	8 (≈ 10 µM)	8 (≈ 10 µM)	4 (≈ 5.01 µM)	8 (≈ 10 µM)
–	–	CCCCCCCCCCn1cc(C[C@H](O[C@@H]2O[C@H](CN)[C@@H](O)[C@H]2O)[C@H]2O[C@@H](n3ccc(=O)[nH]c3=O)[C@H](O)[C@@H]2O)nn1	4.82	> 128	> 128	128 (≈ 215 µM)	64 (≈ 107 µM)	> 128	> 128	–	–	–	–	–	–
–	–	NC[C@H]1O[C@@H](O[C@@H](Cc2cn(Cc3ccc(COc4ccc(C(=O)c5ccccc5)cc4)cc3)nn2)[C@H]2O[C@@H](n3ccc(=O)[nH]c3=O)[C@H](O)[C@@H]2O)[C@H](O)[C@@H]1O	4.70	> 128	> 128	64 (≈ 84.6 µM)	32 (≈ 42.3 µM)	> 128	> 128	–	–	–	–	–	–
4 (≈ 6.1 µM)	4 (≈ 6.1 µM)	CCCCCCCCCCCC(=O)N[C@@H]1CCN[C@@H]([C@H](O[C@@H]2O[C@H](CN)[C@@H](O)[C@H]2O)[C@H]2O[C@@H](n3ccc(=O)[nH]c3=O)[C@H](O)[C@@H]2O)C1	–	–	–	–	–	–	–	–	4 (≈ 6.1 µM)	–	–	4 (≈ 6.1 µM)	–
